Reference: PMC4513130, “Neuronal Calcium Sensor-1 Binds the D2 Dopamine Receptor and G-protein-coupled Receptor Kinase 1 (GRK1) Peptides Using Different Modes of Interactions” (The Journal of Biological Chemistry, 2015)

Experiments:
[1] = Solubility and aggregation
[2] = tested on: recoverin; conditions: NMR structure, PDB 2I94; orientation opposite to that in NCS-1·GRK1 complex; cited from earlier work
Text: The C-terminal α-helix in both complexes form one edge of the hydrophobic groove. […] Somewhat surprising are the differences observed between the NCS-1 ...

[3] = tested on: NCS-1; experiment: Crystal structure of peptide complex with Ca2+/NCS-1 (copies bound, buried surface area); format: binding, Rattus norvegicus
Method: Purified proteins were equilibrated against 20 mM Tris-HCl, pH 7.5, and concentrated to 1 mM final protein concentration before initiating crystallization trials. For crystallization of the peptide complexes, a 2-fold excess of peptide was added to the protein solution. Crystals were grown at 20 °C using the sitting drop vapor diffusion method. NCS-1 was crystallized in 0.1 M sodium cacodylate, pH 6.5, 0.2 M sodium acetate, and 30% (w/v) PEG 8000, similar to the conditions previously reported ([27]). […]
For the NCS-1·D2R complex, molecular replacement used the structure of human NCS-1 (human and rat NCS-1 have 99% sequence identity; PDB accession 1G8I) and PHASER ([31]), as implemented from within PHENIX ([32]). […] At this stage, electron density for the helix for chain B was readily apparent, and a model for the helix was built in manually using COOT ([33]). […]
The structure of the NCS-1·GRK1 complex was determined using the coordinates from the A chain of the NCS-1 apoprotein and the program MOLREP ([38]), as implemented from within the CCP4 program suite ([39]). […] Electron density for a single GRK1 peptide per NCS-1 monomer, in a helical conformation, was readily detectable. […]
Data for NCS-1ΔCT were processed using MOSFLM ([37]) and SCALA ([30]). […] The four molecular copies of NCS-1ΔCT in this crystal form were readily identified in this way. […]

[4] = Size exclusion chromatography-multiangle laser light scattering (MALLS); format: physicochemical; conditions: SEC-MALLS, Superdex 75; 20 mM Tris-HCl, 150 mM NaCl, 1 mM CaCl2, pH 7.5; 1.5 mg/ml injected
Method: Measurements were performed on a Dionex BioLC HPLC connected to an 18-angle light scattering detector and a differential refractometer (DAWN HELEOS-II and OPTILab rEX, Wyatt). A Superdex 75 10/300 GL column (GE Healthcare) was used in 20 mM Tris-HCl, 150 mM NaCl, 1 mM CaCl2, pH 7.5, at a flow rate of 0.75 ml/min. Sample volumes of 1 ml were injected at a concentration of 1.5 mg/ml. Samples eluting from the column passed through an in-line DAWN HELEOS-II laser photometer (λ = 658 nm) and an OPTILab rEX refractometer with a QELS dynamic light scattering attachment. Light scattering intensity and eluant refractive index (concentration) were analyzed using ASTRA version 5.3.4.13 software to give a weight-averaged molecular mass. To determine the detector delay volumes and normalization coefficients for the MALLS detector, a BSA sample (Sigma A-8531) was used as reference.

[5] = tested on: NCS-1ΔCT; experiment: NMR (1H-15N HSQC) of Ca2+/NCS-1ΔCT, titration with D2R peptide; format: binding, rat; conditions: 15N Ca2+/NCS-1ΔCT alone
Method: NCS-1 was prepared in 50 mM Tris-HCl buffer, pH 6.8, in the presence of 5 mM MgCl2 and 5 mM CaCl2. NMR spectra were recorded at 27 °C on Bruker DRX 800 and 600 MHz Avance II spectrometers equipped with CryoProbes. Data were processed using the Bruker software TopSpin and analyzed using CCPN software ([26]). Sequence-specific backbones were obtained using the HNCA, HN(CO)CA, HNCO, HN(CA)CO, CBCA(CO)NH, CBCANH, HBHA(CO)NH, and HCCH-TOCSY experiments.
FIGURE 9. NMR spectra and structure of rat Ca^2+/NCS-1ΔCT (PDB code 4YRU). A,^1H-^15N heteronuclear single quantum coherence spectra of ^15N Ca^2+/NCS-1ΔCT; B, in the presence of 5-fold excess of D2R peptide in 50 mM Tris-HCl buffer, 50 mM NaCl, 5 mM CaCl2, pH 6.5, 298 K. C, structure of the dimer of NCS-1ΔCT. Left, one monomer is shown as a backbone schematic and the other as a surface representation. Right, view of the hydrophobic binding site. Residues from helix 3 and the EF1/EF2 loop (Phe-48–Phe-58) are colored red, and residues in the EF3/EF4 loop region (Val-136–Pro-139) are colored brown. Conserved hydrophobic surface-exposed residues in the N-lobe site, which are involved with binding the D2R peptide, are highlighted in yellow (similar to those highlighted in Fig. 4B). D2R peptide in the N-site is shown with magenta ribbon for comparison. Ca^2+ ions are shown as brown spheres.

In the case of “MDFGSLETVVANSAFIAARGSFDGS [GRK1 peptide, N terminus of GRK1, residues 1–25 (UniProt Q15835)]”, the “aggregation” value [1] is listed as “propensity to aggregate”, the “binding site on recoverin” value [2] is listed as “binding only in the N-lobe site” and the “buried surface area of peptide” value ([3]; GRK1 peptide in hydrophobic groove, PDB 5AFP) is listed as 921 Å^2. The “copies of peptide bound per NCS-1 molecule” value ([3]; crystal structure, Ca2+/NCS-1, 2-fold excess of peptide) was “one”.

In the case of “NCS-1ΔCT: C-terminal truncated mutant of NCS-1, residues Ser-178–Val-190 deleted”, the “solution state” value [4] is reported as “polydisperse” and the “NMR spectra of NCS-1ΔCT” value [5] is reported as “significant concentration-dependent line broadening”.

With TFNIEFRKAFLKILHC [reference compound] the “solubility” value ([1]; in water) was “insoluble in water”.
